Counter-ions that a name gives are not always drawn. Like-named read-outs stand apart in the source and are kept apart here.
Test system: HIV
Assay: Anti-HIV activity in HIV-infected human peripheral blood lymphocytes (supernatant viral RNA and p24 core protein)
Type: cell-based
Conditions: for EC50 / inhibition at 10 µM: Human immunodeficiency virus 1, Lymphocyte; for inhibition at 10 µM: read-out: percent inhibition of viral RNA production
Protocol: Human peripheral blood lymphocytes were isolated from the buffy coat fractions of blood donations. The lymphocytes were then stimulated with 5 μg/ml of phytohemagglutinin for 48 hours. Prior to infection with HIV, the lymphocytes were washed and resuspended in mitogen-free medium. On day 0 the cells were infected with HIV and were cultured for four days in the presence or absence of graded concentrations of 20-deoxy-20-chlorophorbol 12,13-bis[(2',4'-difluorophenyl)acetate]. On days 3 and 4 the supernatant levels of total viral RNA and viral core protein p24 were determined at each drug concentration and dose-response curves were used to determine the concentration of drug giving 50% inhibition of production of viral RNA and of p24 core protein. At four days these ED50 values were less than 100 pM for both RNA and p24.
(§1) In a manner similar to Example 111, the anti-HIV ED50 values for RNA [drug concentration is in brackets] for the following diterpenoid compounds were determined from dose-response curves or by estimation from one or more experimental drug concentrations.
as §1, with “indolactam-type” for “diterpenoid”, “concentrations, data giving percent inhibition of viral RNA production at selected concentrations appear in parentheses:” for “concentrations.”
as §1, with “diacylglycero-type” for “diterpenoid”, “concentrations; data giving percent inhibition of viral RNA production at selected concentrations appear in parentheses: […]” for “concentrations.”

[1] = from dose-response curves or by estimation from one or more experimental drug concentrations, read-out: anti-HIV ED50 for RNA

Molecule	EC50 [1] [nM]	other results
CCCCCCCCCCCCCC(=O)O[C@@H]1[C@@H](C)[C@@]2(O)[C@@H](C=C(COC(=O)Nc3ccc(F)c([N+](=O)[O-])c3)C[C@]3(O)C(=O)C(C)=C[C@@H]23)[C@@H]2C(C)(C)[C@]12OC(C)=O [phorbol 12-myristate 13-acetate 20-(4'-fluoro-3'-nitrophenyl)carbamate]	4000	
CC1=C[C@H]2[C@@]3(O)[C@H](C)[C@@H](OC(=O)Cc4ccc(F)cc4F)[C@]4(OC(=O)Cc5ccc(F)cc5F)[C@H]([C@@H]3C=C(CN)C[C@]2(O)C1=O)C4(C)C [20-deoxy-20-aminophorbol 12,13-bis[(2',4'-difluorophenyl)acetate]]	100	
CCCCCCCCc1ccc2c3c(c[nH]c13)C[C@@H](COC(=O)NC)NC(=O)[C@H](C(C)C)N2C [14-O-(N-Methyl)carbamoyl-7-octyl-(9S,12S)-indolactam V]		inhibition at 10 µM: 87%
CC1=C[C@H]2[C@@]3(O)[C@H](C)[C@@H](OC(=O)Cc4ccc(F)cc4F)[C@]4(OC(=O)Cc5ccc(F)cc5F)[C@H]([C@@H]3C=C(C[S+]([O-])CCO)C[C@]2(O)C1=O)C4(C)C (stereo partly shown) [20-deoxy-20-(2'-hydroxyethylsulfinyl)phorbol 12,13-bis[(2',4'-difluorophenyl)acetate]]	1600	
CC1=C[C@H]2[C@@]3(O)[C@H](C)[C@@H](OC(=O)Cc4ccc(F)cc4F)[C@]4(OC(=O)Cc5ccc(F)cc5F)[C@H]([C@@H]3C=C(CSCC(O)CO)C[C@]2(O)C1=O)C4(C)C (stereo partly shown) [20-deoxy-20-(2',3'-dihydroxypropylthio)phorbol 12,13-bis[(2',4'-difluorophenyl)acetate]]	3000	
CC1=C[C@H]2[C@@]3(O)[C@H](C)[C@@H](OC(=O)Cc4ccc(F)cc4F)[C@]4(OC(=O)Cc5ccc(F)cc5F)[C@H]([C@@H]3C=C(COC(=O)Oc3ccc(O)cc3)C[C@]2(O)C1=O)C4(C)C [20-O-(4'-hydroxyphenoxy)carbonylphorbol 12,13-bis[(2',4'-difluorophenyl)acetate]]	< 10	
CC1=C[C@H]2[C@@]3(O)[C@H](C)[C@@H](OC(=O)Cc4ccc(F)cc4F)[C@]4(OC(=O)Cc5ccc(F)cc5F)[C@H]([C@@H]3C=C(C=NO)C[C@]2(O)C1=O)C4(C)C [20-deoxy-20-hydroximinophorbol 12,13-bis[(2',4'-difluorophenyl)acetate]]	5500	
CC1=C[C@H]2[C@@]3(O)[C@H](C)[C@@H](OC(=O)Cc4ccc(F)cc4F)[C@]4(OC(=O)Cc5ccc(F)cc5F)[C@H]([C@@H]3C=C(CS(=O)(=O)CCO)C[C@]2(O)C1=O)C4(C)C [20-deoxy-20-(2'-hydroxyethylsulfonyl)phorbol 12,13-bis[(2',4'-difluorophenyl)acetate]]	5000	
9-deshydroxymethyl-9-[N-(2'-glucosyl)]carboxamidoindolactam V		percent inhibition of viral RNA production (at 10 μM): 35%
CCOC(=O)[C@@H]1Cc2cn(CO)c3cccc(c23)N(C)[C@@H](C(C)C)C(=O)N1 [1-N-hydroxymethyl-9-deshydroxymethyl-9-ethoxycarbonylindolactam V]		inhibition at 10 µM (at 10 μM): 31%
CC1=C[C@H]2[C@@]3(O)[C@H](C)[C@@H](OC(=O)Cc4ccc(F)cc4F)[C@]4(OC(=O)Cc5ccc(F)cc5F)[C@H]([C@@H]3C=C(C=NO)C[C@]2(O)C1=NO)C4(C)C [20-deoxy-3-deoxo-3,20-bis(hydroximino)phorbol 12,13-bis[(2',4'-difluorophenyl)acetate]]	45	
CNC(=O)OC[C@@H]1Cc2c[nH]c3cccc(c23)N(C)[C@@H](C(C)C)C(=O)N1 (relative stereo) [rac-14-O-(N-methyl)carbamoylindolactam V]		inhibition at 10 µM: 52%
CC(C)[C@H]1C(=O)N[C@H](CSCCO)Cc2c[nH]c3cccc(c23)N1C [14-deoxy-14-(2'-hydroxyethylthio)indolactam V]	1000	
CC(C)C1C(=O)NC(C(=O)OCC(O)CO)Cc2c[nH]c3cccc(c23)N1C (stereo not shown) [9-deshydroxymethyl-9-(2',3'-dihydroxy)propyloxycarbonylindolactam V]		percent inhibition of viral RNA production (at 10 μM): 20%
CCC[S+]([O-])CC1=C[C@H]2[C@@H]3C(C)(C)[C@]3(OC(=O)Cc3ccc(F)cc3F)[C@H](OC(=O)Cc3ccc(F)cc3F)[C@@H](C)[C@]2(O)[C@@H]2C=C(C)C(=O)[C@@]2(O)C1 (stereo partly shown) [20-deoxy-20-(propylsulfinyl)phorbol 12,13-bis[(2',4'-difluorophenyl)acetate]]	500	
9-Deshydroxymethyl-9-[N-(2',3'-dihydroxy)propyl]carboxamidoindolactam V		percent inhibition of viral RNA production (at 10 μM): 22%
COC(=O)C1=C[C@H]2[C@@H]3C(C)(C)[C@]3(OC(=O)Cc3ccc(F)cc3F)[C@H](OC(=O)Cc3ccc(F)cc3F)[C@@H](C)[C@]2(O)[C@@H]2C=C(C)C(=O)[C@@]2(O)C1 [6-deshydroxymethyl-6-methoxycarbonylphorbol 12,13-bis[(2',4'-difluorophenyl)acetate]]	1600	
CC1=C[C@H]2[C@@]3(O)[C@H](C)[C@@H](OC(=O)Cc4ccc(F)cc4F)[C@]4(OC(=O)Cc5ccc(F)cc5F)[C@H]([C@@H]3C=C(C#N)C[C@]2(O)C1=O)C4(C)C [6-deshydroxymethyl-6-cyanophorbol 12,13-bis[(2',4'-difluorophenyl)acetate]]	< 100	
CCCSCC1=C[C@H]2[C@@H]3C(C)(C)[C@]3(OC(=O)Cc3ccc(F)cc3F)[C@H](OC(=O)Cc3ccc(F)cc3F)[C@@H](C)[C@]2(O)[C@@H]2C=C(C)C(=O)[C@@]2(O)C1 [20-deoxy-20-propylthiophorbol 12,13-bis[(2',4'-difluorophenyl)acetate]]	10	
CC1=C[C@H]2[C@@]3(O)[C@H](C)[C@@H](OC(=O)Cc4ccc(F)cc4F)[C@]4(OC(=O)Cc5ccc(F)cc5F)[C@H]([C@@H]3C=C(CN=[N+]=[N-])C[C@]2(O)C1=O)C4(C)C [20-deoxy-20-azidophorbol 12,13-bis[(2',4'-difluorophenyl)acetate]]	65	
CCCCCCCCCCCCCC(=O)O[C@@H]1[C@@H](C)[C@@]2(O)[C@@H](C=C(C[S+]([O-])CCO)C[C@]3(O)C(=O)C(C)=C[C@@H]23)[C@@H]2C(C)(C)[C@]12OC(C)=O (stereo partly shown) [20-deoxy-20-(2'-hydroxyethylsulfinyl)phorbol 12-myristate 13-acetate]	1100	
CC1=C[C@H]2[C@@]3(O)[C@H](C)[C@@H](OC(=O)Cc4ccc(F)cc4F)[C@]4(OC(=O)Cc5ccc(F)cc5F)[C@H]([C@@H]3C=C(CNc3cccc(CO)c3)C[C@]2(O)C1=O)C4(C)C [20-deoxy-20-[(3'-hydroxymethylphenyl)amino]phorbol 12,13-bis[(2',4'-difluorophenyl)acetate]]	180	
CC1=C[C@H]2[C@@]3(O)[C@H](C)[C@@H](OC(=O)Cc4ccc(F)cc4F)[C@]4(OC(=O)Cc5ccc(F)cc5F)[C@H]([C@@H]3C=C(CSCCS)C[C@]2(O)C1=O)C4(C)C [20-deoxy-20-(2'-mercaptoethylthio)phorbol 12,13-bis[(2',4'-difluorophenyl)acetate]]	50	
CCCCCCCCc1ccc2c3c(c[nH]c13)C[C@@H](CSCCO)NC(=O)[C@H](C(C)C)N2C [14-deoxy-14-(2'-hydroxyethylthio)-7-octyl-(9S,12S)-indolactam V]	100	
CC1=C[C@H]2[C@@]3(O)[C@H](C)[C@@H](OC(=O)Cc4ccc(F)cc4F)[C@]4(OC(=O)Cc5ccc(F)cc5F)[C@H]([C@@H]3C=C(CSCCC(=O)O)C[C@]2(O)C1=O)C4(C)C [20-deoxy-20-(2'-carboxyethylthio)phorbol 12,13-bis(2',4'-difluorophenylacetate)]	4500	
CNC(=O)OC[C@@H]1Cc2cn(CC[P+](c3ccccc3)(c3ccccc3)c3ccccc3)c3cccc(c23)N(C)[C@@H](C(C)C)C(=O)N1 (relative stereo) [rac-14-O-(N-methyl)carbamoyl-1-N-(2'-triphenylphosphonium)ethylindolactam V, methanesulfonate salt]		inhibition at 10 µM: 82%
CC1=C[C@H]2[C@@]3(O)[C@H](C)[C@@H](OC(=O)Cc4ccc(F)cc4F)[C@]4(OC(=O)Cc5ccc(F)cc5F)[C@H]([C@@H]3C=C(CCl)C[C@]2(O)C1=O)C4(C)C [20-deoxy-20-chlorophorbol 12,13-bis[(2',4'-difluorophenyl)acetate]]		EC50 (96 h, supernatant total viral RNA, at four days, read-out: ED50, concentration of drug giving 50% inhibition of production of viral RNA): < 0.1 nM; EC50 (96 h, supernatant viral core protein p24, at four days, read-out: ED50, concentration of drug giving 50% inhibition of production of p24 core protein): < 0.1 nM
CC1=C[C@H]2[C@@]3(O)[C@H](C)[C@@H](OC(=O)Cc4c(F)c(F)c(F)c(F)c4F)[C@]4(OC(=O)Cc5c(F)c(F)c(F)c(F)c5F)[C@H]([C@@H]3C=C(CCl)C[C@]2(O)C1=O)C4(C)C [20-deoxy-20-chlorophorbol 12,13-bis[(pentafluorophenyl)acetate]]	< 1	
O=C1CCCCCCCCCCCCCCCCCCC(=O)OC(CSCCO)CO1 (stereo not shown) [3-[(2'-hydroxyethylthio)methyl]-1,6-dioxo-2,5-dioxacyclotetracosane]	10	
9-deshydroxymethyl-9-ethoxycarbonylindolactam V		percent inhibition of viral RNA production (at 10 μM): 47%

From patent publication US5955501A, “Protein kinase C modulators O” (priority 1995, dated 1999)
